In ChEMBL document CHEMBL1629425, “Antibacterial prenylated acylphloroglucinols from the fern Elaphoglossum yungense” (2010):
Values after ≈ are worked out from the molar mass of the structure shown. Active and inactive are the calls of the source. The rule behind the calls is not given here.

Experiments:
Staphylococcus aureus [1] = experiment: Antibacterial activity against Staphylococcus aureus ATCC 6738 after 24 hrs by Broth micro dilution method; format: functional; details: ATCC 6738, 24 h
Pseudomonas aeruginosa [2] = experiment: Antibacterial activity against Pseudomonas aeruginosa ATCC 27853 after 24 hrs by Broth micro dilution method; format: functional; details: ATCC 27853, 24 h
Staphylococcus aureus [3] = experiment: Antibacterial activity against Staphylococcus aureus ATCC 6738 assessed as growth inhibition at 10 ug/ml after 24 hrs by Broth micro dilution method relative to control; format: functional; details: ATCC 6738, 24 h, read-out: GI
Pseudomonas aeruginosa [4] = experiment: Antibacterial activity against Pseudomonas aeruginosa ATCC 27853 assessed as growth inhibition at 10 ug/ml after 24 hrs by Broth micro dilution method relative to control; format: functional; details: ATCC 27853, 24 h, read-out: GI
Staphylococcus aureus [5] = experiment: increase in biofilm formation of Staphylococcus aureus ATCC 6738 at 10 ug/ml relative to control; format: functional, organism-based

MIC (Staphylococcus aureus [1]) [µg/mL]	MIC (Pseudomonas aeruginosa [2]) [µg/mL]	SMILES	MBC (Staphylococcus aureus [1]) [µg/mL]	MBC (Pseudomonas aeruginosa [2]) [µg/mL]	inhibition of growth at 10 µg/mL (Staphylococcus aureus [3]) [%]	inhibition of growth at 10 µg/mL (Pseudomonas aeruginosa [4]) [%]	Activity (Staphylococcus aureus [5])
10 (≈ 16.9 µM)	10 (≈ 16.9 µM)	CCCC(=O)c1c(O)c(CC2=C(O)C(C)(C/C=C(\C)CCC=C(C)C)C(O)=C(C(C)=O)C2=O)c(O)c2c1OC(C)(C)C=C2 (stereo not given) [YUNGENSIN A]	50 (≈ 84.4 µM)	50 (≈ 84.4 µM)	99	99	inactive
10 (≈ 16.1 µM)	10 (≈ 16.1 µM)	CCCCCC(=O)c1c(O)c(CC2=C(O)C(C)(C/C=C(\C)CCC=C(C)C)C(O)=C(C(C)=O)C2=O)c(O)c2c1OC(C)(C)C=C2 (stereo not given) [YUNGENSIN B]	100 (≈ 161 µM)	50 (≈ 80.5 µM)	99	99	inactive

Second part, the molecule before the results:

SMILES	MIC (Staphylococcus aureus [1]) [µg/mL]	MIC (Pseudomonas aeruginosa [2]) [µg/mL]	MBC (Staphylococcus aureus [1]) [µg/mL]	MBC (Pseudomonas aeruginosa [2]) [µg/mL]	inhibition of growth at 10 µg/mL (Staphylococcus aureus [3]) [%]	inhibition of growth at 10 µg/mL (Pseudomonas aeruginosa [4]) [%]	Activity (Staphylococcus aureus [5])
CCCC(=O)c1c(O)c(CC2=C(O)C(C)(C/C=C(\C)CCC=C(C)C)C(O)=C(C(C)=O)C2=O)c(O)c2c1OC(C)(CCC=C(C)C)C=C2 (stereo not given) [YUNGENSIN C]	50 (≈ 75.7 µM)	50 (≈ 75.7 µM)	100 (≈ 151 µM)	50 (≈ 75.7 µM)	92	87	
CCCC(=O)c1c(O)c(CC=C(C)C)c(O)c(CC2=C(O)C(C)(C/C=C(\C)CCC=C(C)C)C(O)=C(C(C)=O)C2=O)c1O (stereo not given) [YUNGENSIN D]	100 (≈ 168 µM)	50 (≈ 84.1 µM)	> 200	100 (≈ 168 µM)	83	86	
CCCC(=O)c1c(O)c(C/C=C(\C)CCC=C(C)C)c(O)c(CC2=C(O)C(C)(C/C=C(\C)CCC=C(C)C)C(O)=C(C(C)=O)C2=O)c1O (stereo not given) [YUNGENSIN E]	100 (≈ 151 µM)	100 (≈ 151 µM)	200 (≈ 302 µM)	200 (≈ 302 µM)	87	87	inactive
CCCC(=O)c1c(O)c2c(c(CC3=C(O)C(C)(C/C=C(\C)CCC=C(C)C)C(O)=C(C(C)=O)C3=O)c1O)OC(C)(C)C=C2 (stereo not given) [YUNGENSIN F]	50 (≈ 84.4 µM)	50 (≈ 84.4 µM)	100 (≈ 169 µM)	50 (≈ 84.4 µM)	93	86	inactive
